# Measurements: patent publication US11752141B2, “Pharmaceutical compositions and methods utilizing neostigmine and an NK-1 antagonist for treating myasthenia gravis” (priority 2017, dated 2023)
# Tested on: human subjects
# Assay: Phase I single-blind, placebo-controlled study of pyridostigmine bromide with or without aprepitant
# Type: in vivo
# Conditions: single oral dose of aprepitant (up to 125 mg) co-administered with first intolerable dose (FID) of oral pyridostigmine bromide; healthy volunteers; follow-up up to 8 hours
# Method: The ability of the NK1-antagonists for preventing the adverse effects of pyridostigmine bromide in humans is tested.
# A Phase I study is conducted in human subjects receiving a single oral dose of pyridostigmine bromide with or without a single oral dose of aprepitant, as a representative NK1-antagonist. The study was a single center, single-blind, placebo-controlled study.
# To be enrolled in the study, participants are to meet the following inclusion/ex elusion criteria:
# • 1. Male or female volunteers between the ages of 18 and 60 years inclusive are required to be in good health, to refrain from consuming xanthine, quinine and caffeine containing beverages, and to refrain from prolonged intensive physical exercise during the study conduct. • 2. […] Subjects had to be in good health according to their medical history including personal and family psychiatric history, physical examination, ECG, vital signs, and laboratory tests. […] Subjects had to be able to swallow multiple pills simultaneously. Key Exclusion Criteria • 1. Any clinically relevant acute or chronic disease which could interfere with the subjects' safety during the trial, expose them to undue risk, or interfere with the study objectives. • 2. History or presence of gastrointestinal, hepatic, or renal disease or other condition known to interfere with the absorption, distribution, metabolism or excretion of drugs. • 3. […]
smiles,measurement,value
"C[C@@H](O[C@H]1OCCN(Cc2nc(=O)[nH][nH]2)[C@H]1c1ccc(F)cc1)c1cc(C(F)(F)F)cc(C(F)(F)F)c1 [aprepitant, 5-[[(2R,3S)-2-[(1R)-1-[3,5-bis(trifluoromethyl)phenyl]ethoxy]-3-(4-fluorophenyl)-4-morpholinyl]methyl]-1,2-dihydro-3H-1,2,4-triazol-3-one]",occurrence of gastro-intestinal AEs with pyridostigmine,prevents or attenuates
